Measured values as given in US20250136619A1, “HETEROBIFUNCTIONAL COMPOUNDS AND THEIR USE IN TREATING DISEASE” (HALDA THERAPEUTICS OPCO, INC., priority 2021, published 2025).
Read-outs that look alike come from different tables or passages of the source.

Key:
CDK9 = CDK9 (Homo sapiens (Human), UniProt P50750); assay: KdELECT assay for binding affinity to CDK9
Description: (§1) Compounds were tested using a KdELECT. Kinase-tagged T7 phage strains were prepared in an E. coli host derived from the BL21 strain. E. coli were grown to log-phase and infected with T7 phage and incubated with shaking at 32° C. until lysis. The lysates were centrifuged and filtered to remove cell debris. The remaining kinases were produced in HEK-293 cells and subsequently tagged with DNA for qPCR detection. Streptavidin-coated magnetic beads were treated with biotinylated small molecule ligands for 30 minutes at room temperature to generate affinity resins for kinase assays. The liganded beads were blocked with excess biotin and washed with blocking buffer (SeaBlock (Pierce), 1% BSA, 0.05% Tween 20, 1 mM DTT) to remove unbound ligand and to reduce non-specific binding. Binding reactions were assembled by combining kinases, liganded affinity beads, and test compounds in 1×binding buffer (20% SeaBlock, 0.17×PBS, 0.05% Tween 20, 6 mM DTT). Test compounds were prepared as 111X stocks in 100% DMSO. Kd values were determined using an 11-point 3-fold compound dilution series with three DMSO control points. All compounds for Kd measurements are distributed by acoustic transfer (non-contact dispensing) in 100% DMSO. The compounds were then diluted directly into the assays such that the final concentration of DMSO was 0.9%. All reactions performed in polypropylene 384-well plate. Each was a final volume of 0.02 mL. The assay plates were incubated at room temperature with shaking for 1 hour and the affinity beads were washed with wash buffer (1×PBS, 0.05% Tween 20). The beads were then re-suspended in elution buffer (1×PBS, 0.05% Tween 20, 0.5 μM nonbiotinylated affinity ligand) and incubated at room temperature with shaking for 30 minutes. The kinase concentration in the eluates was measured by qPCR.

BTK = BTK (Homo sapiens (Human), UniProt Q06187); assay: KdELECT assay for binding affinity to BTK
Sequence of BTK (Q06187 whole entry): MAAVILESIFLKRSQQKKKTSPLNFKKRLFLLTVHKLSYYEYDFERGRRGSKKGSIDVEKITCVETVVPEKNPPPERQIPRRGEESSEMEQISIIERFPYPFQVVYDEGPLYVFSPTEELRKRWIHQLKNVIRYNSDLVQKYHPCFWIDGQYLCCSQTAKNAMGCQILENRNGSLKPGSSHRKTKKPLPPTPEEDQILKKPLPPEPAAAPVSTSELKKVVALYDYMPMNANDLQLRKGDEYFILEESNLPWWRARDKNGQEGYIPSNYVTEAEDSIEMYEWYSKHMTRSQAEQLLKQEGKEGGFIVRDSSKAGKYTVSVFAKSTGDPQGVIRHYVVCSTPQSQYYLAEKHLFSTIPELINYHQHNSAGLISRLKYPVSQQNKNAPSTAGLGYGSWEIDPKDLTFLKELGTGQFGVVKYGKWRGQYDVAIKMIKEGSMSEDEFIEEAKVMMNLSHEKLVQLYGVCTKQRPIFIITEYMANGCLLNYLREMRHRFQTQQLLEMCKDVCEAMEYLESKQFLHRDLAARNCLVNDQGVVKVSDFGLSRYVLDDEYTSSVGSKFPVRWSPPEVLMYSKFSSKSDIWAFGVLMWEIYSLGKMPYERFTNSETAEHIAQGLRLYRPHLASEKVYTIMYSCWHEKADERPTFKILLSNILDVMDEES
Description: as §1, with “KdELECT assay.” for “KdELECT.”, “1× binding” for “1×binding”

HeLa cells = assay: Cellular growth inhibition assay (CellTiter-Glo), HeLa cells; assay type: cell-based; details: read-out: CTG HELA GI50
Procedure, shortened: (§2)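 HeLa or HEK293 cells in DMEM with 10% FBS exposed to titrated compound for three days at 37 °C, 5% CO2, 24 h after seeding. Viability by CellTiter-Glo 2.0 luminescence, normalized to DMSO Day 0 and Day 3 readings; four-parameter fit gives GI50.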

HEK293 cells = assay: Cellular growth inhibition assay (CellTiter-Glo), HEK293 cells; assay type: cell-based; details: read-out: CTG HEK293 GI50
Procedure, shortened: as §2

[1] = Homo sapiens, 72 h, HeLa cells, three days of compound treatment, CellTiter-Glo 2.0
[2] = Homo sapiens, 72 h, HEK293 cells, three days of compound treatment, CellTiter-Glo 2.0

Sequence of CDK9 (P50750 whole entry): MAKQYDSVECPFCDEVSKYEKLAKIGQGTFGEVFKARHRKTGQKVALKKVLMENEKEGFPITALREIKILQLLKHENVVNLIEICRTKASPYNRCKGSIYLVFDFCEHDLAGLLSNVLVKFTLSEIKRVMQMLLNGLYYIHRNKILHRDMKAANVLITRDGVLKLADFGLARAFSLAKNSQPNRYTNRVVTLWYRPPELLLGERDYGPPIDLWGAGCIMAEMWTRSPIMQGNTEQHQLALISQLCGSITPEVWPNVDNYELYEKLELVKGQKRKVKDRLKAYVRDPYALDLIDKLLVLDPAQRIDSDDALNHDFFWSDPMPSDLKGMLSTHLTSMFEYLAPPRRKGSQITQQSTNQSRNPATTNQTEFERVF

Structure (SMILES)	Kd (CDK9) [µM]	Kd (BTK) [µM]	GI50 (HeLa cells; [1]) [µM]	GI50 (HEK293 cells; [2]) [µM]	GI50 (HeLa cells; HeLa cells, three days of compound treatment, CellTiter-Glo 2.0) [µM]	GI50 (HEK293 cells; HEK293 cells, three days of compound treatment, CellTiter-Glo 2.0) [µM]	GI50 (HeLa cells; Homo sapiens, HeLa, 72 h) [µM]	GI50 (HEK293 cells; Homo sapiens, HEK293, 72 h) [µM]
NC(=O)c1c(F)cccc1Nc1nc(Nc2ccc(S(=O)(=O)NCCOCCOCCOC3CCN(C/C=C/C(=O)N4CCC[C@@H](n5nc(-c6ccc(Oc7ccccc7)cc6)c6c(N)ncnc65)C4)CC3)cc2)ncc1Br [Compound I-68, 2-[[2-[4-[2-[2-[2-[[1-[(E)-4-[(3R)-3-[4-amino-3-(4-phenoxyphenyl)pyrazolo[3,4-d]pyrimidin-1-yl]-1-piperidyl]-4-oxo-but-2-enyl]-4-piperidyl]oxy]ethoxy]ethoxy]ethylsulfamoyl]anilino]-5-bromo-pyrimidin-4-yl]amino]-6-fluoro-benzamide]	0.5 to 2.5	< 0.05	–	–	–	–	–	–
CCc1cnn2c(NCc3ccc(OCCOCCOCCOCCOCCOC/C=C/C(=O)N4CCC[C@@H](n5nc(-c6ccc(Oc7ccccc7)cc6)c6c(N)ncnc65)C4)nc3)cc(N3CCCC[C@H]3CCO)nc12 [Compound I-42]	0.05 to 0.5	< 0.05	< 0.5	0.5 to 1.5	–	–	–	–
CCc1cnn2c(NCc3ccc(OCCOCCOCCOC4CCN(C/C=C/C(=O)N5CCC[C@@H](n6nc(-c7ccc(Oc8ccccc8)cc7)c7c(N)ncnc76)C5)CC4)nc3)cc(N3CCCC[C@H]3CCO)nc12 [Compound I-70, (E)-1-((R)-3-(4-amino-3-(4-phenoxyphenyl)-1H-pyrazolo[3,4-d]pyrimidin-1-yl)piperidin-1-yl)-4-(4-(2-(2-(2-((5-(((3-ethyl-5-((S)-2-(2-hydroxyethyl)piperidin-1-yl)pyrazolo[1,5-a]pyrimidin-7-yl)amino)methyl)pyridin-2-yl)oxy)ethoxy)ethoxy)ethoxy)piperidin-1-yl) but-2-en-1-one]	0.05 to 0.5	< 0.05	< 0.5	0.5 to 1.5	–	–	–	–
CN(C/C=C/C(=O)N1CCC[C@@H](n2nc(-c3ccc(Oc4ccccc4)cc3)c3c(N)ncnc32)C1)CCOCCOCCOCCOCCNS(=O)(=O)c1ccc(Nc2ncc(Br)c(Nc3cccc(F)c3C(N)=O)n2)cc1 [Compound I-64, 2-[[2-[4-[2-[2-[2-[2-[2-[[(E)-4-[(3R)-3-[4-amino-3-(4-phenoxyphenyl)pyrazolo[3,4-d]pyrimidin-1-yl]-1-piperidyl]-4-oxo-but-2-enyl]-methyl-amino]ethoxy]ethoxy]ethoxy]ethoxy]ethylsulfamoyl]anilino]-5-bromo-pyrimidin-4-yl]amino]-6-fluoro-benzamide]	0.5 to 2.5	< 0.05	1.5 to 5	> 5	–	–	–	–
CCc1cnn2c(NCc3ccc(OCCOCCOCCOCCOCCN(C)C/C=C/C(=O)N(C)CCOc4c(N)ncnc4-c4cc(F)cc(NC(=O)c5ccc(C6CC6)cc5F)c4C)nc3)cc(N3CCCC[C@H]3CCO)nc12 [Compound I-77]	0.05 to 0.5	0.5 to 2.5	–	–	–	–	–	–
CCc1cnn2c(NCc3ccc(OCCCN4CCN(CCCN(C)C/C=C/C(=O)N(C)CCOc5c(N)ncnc5-c5cc(F)cc(NC(=O)c6ccc(C7CC7)cc6F)c5C)CC4)nc3)cc(N3CCCC[C@H]3CCO)nc12 [Compound I-81, N-[3-[6-amino-5-[2-[[(E)-4-[3-[4-[3-[5-[[[3-ethyl-5-[(2S)-2-(2-hydroxyethyl)-1-piperidyl]pyrazolo[1,5-a]pyrimidin-7-yl]aminomethyl]-2-pyridyl]oxy]propyl]piperazin-1-yl]propyl-methyl-amino]but-2-enoyl]-methyl-amino]ethoxy]pyrimidin-4-yl]-5-fluoro-2-methyl-phenyl]-4-cyclopropyl-2-fluoro-benzamide]	< 0.05	< 0.05	–	–	< 0.5	< 0.5	–	–
CCc1cnn2c(NCc3ccc(CCOCCOCCN(C)C/C=C/C(=O)N4CCC[C@@H](n5nc(-c6ccc(Oc7ccccc7)cc6)c6c(N)ncnc65)C4)nc3)cc(N3CCCC[C@H]3CCO)nc12 [Compound I-67, (E)-1-((R)-3-(4-amino-3-(4-phenoxyphenyl)-1H-pyrazolo[3,4-d]pyrimidin-1-yl)piperidin-1-yl)-4-((2-(2-(2-(5-(((3-ethyl-5-((S)-2-(2-hydroxyethyl)piperidin-1-yl)pyrazolo[1,5-a]pyrimidin-7-yl)amino)methyl)pyridin-2-yl)ethoxy)ethoxy)ethyl)(methyl)amino)but-2-en-1-one]	< 0.05	< 0.05	–	–	–	–	–	–
CCc1cnn2c(NCc3ccc(OCCOCCOCCOC4CCN(C/C=C/C(=O)N(C)CCOc5c(N)ncnc5-c5cc(F)cc(NC(=O)c6ccc(C7CC7)cc6F)c5C)CC4)nc3)cc(N3CCCC[C@H]3CCO)nc12 [Compound I-82, (S,E)-N-(3-(6-amino-5-(2-(4-(4-(2-(2-(2-((5-(((3-ethyl-5-(2-(2-hydroxyethyl)piperidin-1-yl)pyrazolo[1,5-a]pyrimidin-7-yl)amino)methyl)pyridin-2-yl)oxy)ethoxy)ethoxy)ethoxy)piperidin-1-yl)-N-methylbut-2-enamido)ethoxy)pyrimidin-4-yl)-5-fluoro-2-methylphenyl)-4-cyclopropyl-2-fluorobenzamide]	< 0.05	0.05 to 0.5	0.5 to 1.5	1.5 to 5	–	–	–	–
Cc1c(NC(=O)c2ccc(C3CC3)cc2F)cc(F)cc1-c1ncnc(N)c1OCCN(C)C(=O)/C=C/CN1CCC(OCCOCCOCCNS(=O)(=O)c2ccc(Nc3ncc(Br)c(Nc4cccc(F)c4C(N)=O)n3)cc2)CC1 [Compound I-80, 2-[[2-[4-[2-[2-[2-[[1-[(E)-4-[2-[4-amino-6-[3-[(4-cyclopropyl-2-fluoro-benzoyl)amino]-5-fluoro-2-methyl-phenyl]pyrimidin-5-yl]oxyethyl-methyl-amino]-4-oxo-but-2-enyl]-4-piperidyl]oxy]ethoxy]ethoxy]ethylsulfamoyl]anilino]-5-bromo-pyrimidin-4-yl]amino]-6-fluoro-benzamide]	0.05 to 0.5	< 0.05	–	–	–	–	–	–
CCc1cnn2c(NCc3ccc(OCC(=O)N4CC(=O)N(c5cc(C#N)ccn5)[C@H](C(=O)N(c5cc(F)cc(F)c5)[C@H](C(=O)NC5CC(F)(F)C5)c5ccccc5Cl)C4)nc3)cc(N3CCCC[C@H]3CCO)nc12 [Compound I-96, (2S)—N-[(1S)-1-(2-chlorophenyl)-2-[(3,3-difluorocyclobutyl)amino]-2-oxo-ethyl]-1-(4-cyano-2-pyridyl)-N-(3,5-difluorophenyl)-4-[2-[[5-[[[3-ethyl-5-[(2S)-2-(2-hydroxyethyl)-1-piperidyl]pyrazolo[1,5-a]pyrimidin-7-yl]amino]methyl]-2-pyridyl]oxy]acetyl]-6-oxo-piperazine-2-carboxamide]	0.05 to 0.5	–	< 0.5	< 0.5	–	–	–	–
CCc1cnn2c(NCc3ccc(OCCOCCOCC(=O)N4CC(=O)N(c5cc(C#N)ccn5)[C@H](C(=O)N(c5cc(F)cc(F)c5)[C@H](C(=O)NC5CC(F)(F)C5)c5ccccc5Cl)C4)nc3)cc(N3CCCC[C@H]3CCO)nc12 [Compound I-97, (2S)—N-[(1S)-1-(2-chlorophenyl)-2-[(3,3-difluorocyclobutyl)amino]-2-oxo-ethyl]-1-(4-cyano-2-pyridyl)-N-(3,5-difluorophenyl)-4-[2-[2-[2-[[5-[[[3-ethyl-5-[(2S)-2-(2-hydroxyethyl)-1-piperidyl]pyrazolo[1,5-a]pyrimidin-7-yl]amino]methyl]-2-pyridyl]oxy]ethoxy]ethoxy]acetyl]-6-oxo-piperazine-2-carboxamide]	0.05 to 0.5	–	–	–	–	–	< 0.5	< 0.5
